Measured values taken from patent US10208056B2, “Condensed tricyclic compounds as protein kinase inhibitors” (FUNDACIÓN DEL SECTOR PÚBLICO ESTATAL CENTRO NACIONAL DE …, priority 2015, dated 2019).

Legend:
CDK8/Cyclin C = CDK8/Cyclin C (Homo sapiens (Human), UniProt P49336); assay: CDK8/Cyclin C binding assay (LanthaScreen Eu-Kinase Binding Assay); conditions: binding assay
Protocol: The enzyme has been purchase from Invitrogen (PV4402) as a dimer of full-length His-tagged recombinant human proteins.
Assays were performed in 384-well plates. The final read out was generated using an EnVision plate reader (Perkin-Elmer).

CDK19/Cyclin C = CDK19/Cyclin C (Homo sapiens (Human), UniProt Q9BWU1); assay: CDK19/Cyclin C binding assay (LanthaScreen Eu-Kinase Binding Assay); conditions: read-out: CDK19-CYCC IC50
Chain of CDK19/Cyclin C (Q9BWU1 whole entry): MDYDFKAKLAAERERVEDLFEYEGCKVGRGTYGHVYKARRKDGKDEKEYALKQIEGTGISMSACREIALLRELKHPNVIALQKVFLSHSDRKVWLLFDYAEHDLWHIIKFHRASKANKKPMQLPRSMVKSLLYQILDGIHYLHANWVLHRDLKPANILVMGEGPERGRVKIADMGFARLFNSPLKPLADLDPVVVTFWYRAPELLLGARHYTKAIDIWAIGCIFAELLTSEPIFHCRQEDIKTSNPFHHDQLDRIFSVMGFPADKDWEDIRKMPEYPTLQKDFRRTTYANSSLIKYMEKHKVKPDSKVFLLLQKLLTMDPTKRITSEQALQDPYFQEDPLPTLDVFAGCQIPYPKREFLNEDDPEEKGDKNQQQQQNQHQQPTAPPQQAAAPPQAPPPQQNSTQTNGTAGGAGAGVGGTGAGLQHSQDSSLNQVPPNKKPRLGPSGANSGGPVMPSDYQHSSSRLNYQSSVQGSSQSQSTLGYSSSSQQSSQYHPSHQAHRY
Chain of CDK19/Cyclin C (P24863 whole entry partner): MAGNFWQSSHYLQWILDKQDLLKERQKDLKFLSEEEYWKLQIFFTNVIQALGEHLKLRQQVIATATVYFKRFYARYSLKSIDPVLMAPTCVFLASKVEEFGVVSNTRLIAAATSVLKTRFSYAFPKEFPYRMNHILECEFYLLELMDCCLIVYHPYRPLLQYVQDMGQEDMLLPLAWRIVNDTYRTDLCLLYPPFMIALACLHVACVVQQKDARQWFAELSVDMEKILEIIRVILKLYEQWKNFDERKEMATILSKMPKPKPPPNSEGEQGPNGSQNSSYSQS
Procedure, shortened: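 LanthaScreen TR-FRET tracer-displacement format with 2 nM Cdk19-Cyclin C, 20 nM tracer and 2 nM Eu-anti-GST antibody. The buffer was 50 mM HEPES pH 7.5, 10 mM MgCl2, 1 mM EGTA, 0.01% Brij-35, with 1% DMSO final. Compounds were tested as 1:3 serial dilutions and incubated for 60 min at 25 °C.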

intracellular CDK8 [1] = molecular target: T1, intracellular CDK8 (Homo sapiens (Human), UniProt P49336); assay: Cellular CDK8 inhibition assay, western blot P-STAT1 (S727) in IFN-γ treated SW620 cells; format: cell-based; conditions: SW620, IFNγ treated, semiquantitative; read-out: SW620 P-STAT1(S727) w IFNγ
T1 sequence (P49336 whole entry): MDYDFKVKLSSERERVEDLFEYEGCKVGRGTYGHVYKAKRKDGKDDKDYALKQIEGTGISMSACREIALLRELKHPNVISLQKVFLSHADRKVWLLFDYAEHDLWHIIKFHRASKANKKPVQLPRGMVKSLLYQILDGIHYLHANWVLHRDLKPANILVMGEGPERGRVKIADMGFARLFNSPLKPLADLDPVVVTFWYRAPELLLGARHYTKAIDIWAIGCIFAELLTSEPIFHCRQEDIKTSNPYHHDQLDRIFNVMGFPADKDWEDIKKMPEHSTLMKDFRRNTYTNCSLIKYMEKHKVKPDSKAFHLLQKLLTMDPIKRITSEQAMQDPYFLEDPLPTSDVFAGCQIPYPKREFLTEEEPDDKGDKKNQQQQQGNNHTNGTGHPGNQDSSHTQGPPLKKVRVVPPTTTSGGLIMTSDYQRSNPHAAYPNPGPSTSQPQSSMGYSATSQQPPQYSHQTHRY
T1 sequence (P24863 whole entry partner): as the sequence (P24863 whole entry partner) above
T1 sequence (Q93074 whole entry partner): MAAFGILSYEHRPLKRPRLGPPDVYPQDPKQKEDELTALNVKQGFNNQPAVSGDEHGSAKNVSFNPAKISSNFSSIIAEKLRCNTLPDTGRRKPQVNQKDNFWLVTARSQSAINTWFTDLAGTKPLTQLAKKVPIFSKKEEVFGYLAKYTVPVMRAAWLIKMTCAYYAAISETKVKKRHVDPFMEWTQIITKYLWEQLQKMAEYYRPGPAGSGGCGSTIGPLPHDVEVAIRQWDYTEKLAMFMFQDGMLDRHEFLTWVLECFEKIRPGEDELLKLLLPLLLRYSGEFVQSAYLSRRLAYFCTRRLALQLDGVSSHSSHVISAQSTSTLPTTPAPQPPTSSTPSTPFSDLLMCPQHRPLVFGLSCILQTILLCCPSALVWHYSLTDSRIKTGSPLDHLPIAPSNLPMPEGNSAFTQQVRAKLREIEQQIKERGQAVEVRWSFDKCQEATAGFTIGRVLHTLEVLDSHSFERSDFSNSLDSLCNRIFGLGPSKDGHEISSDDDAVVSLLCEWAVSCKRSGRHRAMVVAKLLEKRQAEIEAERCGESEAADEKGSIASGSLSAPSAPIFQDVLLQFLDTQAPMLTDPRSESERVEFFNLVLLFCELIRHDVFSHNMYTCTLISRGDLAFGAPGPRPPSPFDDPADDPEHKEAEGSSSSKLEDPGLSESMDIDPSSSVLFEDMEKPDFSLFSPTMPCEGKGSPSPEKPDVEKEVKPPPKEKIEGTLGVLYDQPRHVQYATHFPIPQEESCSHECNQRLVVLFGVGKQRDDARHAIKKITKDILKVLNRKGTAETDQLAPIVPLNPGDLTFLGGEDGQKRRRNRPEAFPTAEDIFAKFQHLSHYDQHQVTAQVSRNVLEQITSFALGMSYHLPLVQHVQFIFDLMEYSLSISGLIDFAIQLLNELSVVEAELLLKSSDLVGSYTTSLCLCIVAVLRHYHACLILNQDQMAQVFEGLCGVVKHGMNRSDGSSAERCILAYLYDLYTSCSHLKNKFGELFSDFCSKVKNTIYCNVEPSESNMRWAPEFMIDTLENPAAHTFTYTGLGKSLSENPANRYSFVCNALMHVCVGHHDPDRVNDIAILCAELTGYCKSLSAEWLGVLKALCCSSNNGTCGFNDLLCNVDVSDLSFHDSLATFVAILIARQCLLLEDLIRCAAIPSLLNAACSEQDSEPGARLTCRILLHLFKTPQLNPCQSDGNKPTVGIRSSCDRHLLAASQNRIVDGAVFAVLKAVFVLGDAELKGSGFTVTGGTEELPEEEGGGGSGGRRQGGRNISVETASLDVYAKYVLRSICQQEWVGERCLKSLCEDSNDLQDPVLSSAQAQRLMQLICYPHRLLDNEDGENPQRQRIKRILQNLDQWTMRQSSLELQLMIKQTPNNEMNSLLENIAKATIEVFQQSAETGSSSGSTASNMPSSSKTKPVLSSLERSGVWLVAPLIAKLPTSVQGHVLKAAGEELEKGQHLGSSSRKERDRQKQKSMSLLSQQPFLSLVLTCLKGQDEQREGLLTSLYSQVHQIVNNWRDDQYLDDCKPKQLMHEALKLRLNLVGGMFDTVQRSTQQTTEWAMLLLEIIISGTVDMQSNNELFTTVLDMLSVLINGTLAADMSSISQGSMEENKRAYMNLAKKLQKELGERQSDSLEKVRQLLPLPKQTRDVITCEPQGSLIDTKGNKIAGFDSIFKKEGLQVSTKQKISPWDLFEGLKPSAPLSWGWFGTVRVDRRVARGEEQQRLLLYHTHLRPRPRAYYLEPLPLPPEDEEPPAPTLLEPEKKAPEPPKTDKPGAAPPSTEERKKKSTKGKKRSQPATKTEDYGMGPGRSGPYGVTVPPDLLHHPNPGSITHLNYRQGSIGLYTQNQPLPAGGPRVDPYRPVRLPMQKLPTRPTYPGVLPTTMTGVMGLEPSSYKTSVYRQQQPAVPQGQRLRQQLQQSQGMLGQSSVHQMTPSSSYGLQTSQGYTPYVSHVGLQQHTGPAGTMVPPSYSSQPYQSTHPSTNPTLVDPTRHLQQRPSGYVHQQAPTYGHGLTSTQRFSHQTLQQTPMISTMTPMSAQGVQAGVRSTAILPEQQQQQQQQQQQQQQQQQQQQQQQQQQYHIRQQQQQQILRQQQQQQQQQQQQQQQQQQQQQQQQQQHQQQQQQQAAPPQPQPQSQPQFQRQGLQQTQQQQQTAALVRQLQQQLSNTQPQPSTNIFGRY
Protocol: Compounds can be screened for their ability to inhibit intracellular CDK8 using a western blot assay to detect phosphorylation of the CDK8 substrate STAT1 (S727) in IFN-γ treated cells. SW620 cells are plated at 1*10^6 cells per well in 6-well plates (Solmeglas 13118) in RPMI media (Sigma-Aldrich R6504) supplemented with 10% foetal bovine serum (Sigma-Aldrich F7524), Penicillin/Streptomycin solution diluted 1:100 (Gibco 15070-063), and fungizone (Gibco, 15290-018), and allowed to adhere overnight at 37° C. in 5% CO2. Compounds are then added to the cell media from a final concentration of 10 μM in 10-fold serial dilutions and the cells are incubated at 37° C. in 5% CO2. After 1 hour, IFNγ (R&D systems Ref. RYD-285-IF-100) is added to a final concentration of […]. After 3 hours of treatment with IFNγ, the cells are washed in PBS, lysed adding 100 μl of protein lysis buffer (62.5 mM Tris pH 6.8 al 6.25%, 2% SDS y 10% glycerol) incubation 10 minutes at room temperature and heating at 95° C. 10 min. The protein content of the lysates is determined by DC protein assay (Biorad, Ref. 5000116). The proteins are resolved by SDS-PAGE and transferred to nitrocellulose membrane (VWR International eurolab, Ref. 732-4007). The membranes are incubated overnight at 4° C. with antibodies specific for total STAT1 (BD Transduction laboratory #610115), phosphoserine-727 STAT1 (Cell Signaling Ref. 9177) they are washed and then incubated with IRDye800 conjugated anti-mouse (Pierce/Cultek, 35521) and Alexa Fluor 680 goat anti-rabbit IgG secondary antibodies (Invitrogen, A21076). The bands are visualized and quantified using an Odyssey infrared imaging system (Li-Cor Biosciences). The percentage of phosphorylated STAT1 vs total STAT1 in cells treated with IFNγ is taken as hundred percent of phosphorylation. The percentage of STAT1 phosphorylation is finally plotted against concentration for each compound and EC50s for intracellular CDK8 inhibition are calculated using ActivityBase from IDBS.

intracellular CDK8 [2] = molecular target: T1, intracellular CDK8; assay: Endogenous phosphoSTAT1 inhibition in SW620 cells growing in 10% FBS; format: cell-based; conditions: semiquantitative, read-out: SW620 P-STAT1(S727)
Procedure, shortened: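 SW620 cells in 10% FBS treated 8 h with compound, then lysed and phospho-STAT1 measured relative to total STAT1.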

MV4:11 = assay: In vitro cell proliferation assay (CellTiter-Glo), MV4:11; format: cell-based; conditions: Homo sapiens, MV4-11; growth inhibition, semiquantitative; read-out: GI50 MV4:11
MDA-MB-231 = assay: In vitro cell proliferation assay (CellTiter-Glo), MDA-MB-231; format: cell-based; conditions: Homo sapiens, MDA-MB-231; growth inhibition, semiquantitative; read-out: GI50 MDA-MB-231
SW620 [3] = assay: In vitro cell proliferation assay (CellTiter-Glo), SW620; format: cell-based, human; conditions: Homo sapiens, SW-620; growth inhibition, semiquantitative; read-out: GI50 SW620
Molm13 = assay: In vitro cell proliferation assay (CellTiter-Glo), Molm13; format: cell-based; conditions: Homo sapiens, MOLM-13; growth inhibition, semiquantitative; read-out: GI50 Molm13
SW620 cells = assay: Colony formation assay; format: cell-based, human; conditions: SW620 cells treated 11 days
Protocol: The in vitro potency of the compounds was measured by colony formation assays. SW620 cells in logarithmic growth phase are plated at 800 cells per well in 6-well plates (Solmeglas 13118) in RPMI media (Sigma-Aldrich R6504) supplemented with 10% foetal bovine serum (Sigma-Aldrich F7524), Penicillin/Streptomycin solution diluted 1:100 (Gibco 15070-063), and fungizone (Gibco, 15290-018), and allowed to adhere overnight at 37° C. in 5% CO2. Compounds are then added to the cell media from a final concentration of 10 μM in 10-fold serial dilutions and the cells are incubated at 37° C. in 5% CO2. Every three days the medium is changed by fresh medium and compounds are added again. After 11 days, colonies are washed with PBS and fixed in 0.5% crystal violet (Sigma-Aldrich Ref. V5265), 6% glutaraldehide (Sigma-Aldrich Ref. G5882) for 30 minutes. After extensive washing, colonies are dissolved in 2 ml of 10% glacial acetic acid (Sigma-Aldrich Ref. 537020) and absorbance at 590 nm is measured in the Victor 1420 Multilabel Counter (Perkin Elmer). The absorbance in cells treated with DMSO is taken as hundred percent of proliferation. The percentage of proliferation is finally plotted against concentration for each compound and EC50s for colony formation inhibition are calculated using ActivityBase from IDBS.

[4] = system: H3T3ph in tumoral cells from colon, breast and cervix; conditions: dose dependent; cited from earlier work
SW620 [5] = assay: Combination assay, SW620; format: cell-based, human; conditions: Homo sapiens, SW-620; SW620, chemotherapeutic alone; read-out: Chemo GI50
Protocol: (§1) The combination index (CI) of combinations of certain example compounds and various chemotherapeutic agents in the CellTitetI-Glo® in vitro cell proliferation assays may be tested. A combination index score is calculated by the Chou and Talalay method (CalcuSyn software, Biosoft). The strength of synergy is scored using the ranking system Chou and Talalay: CI less than 0.8 indicates synergy, CI between 0.8 and 1.2 indicates additivity and CI greater than 1.2 indicates antagonism.
(§2) The EC50 values of representative combinations are also calculated. The individually measured EC50 values of the chemotherapeutic agent and the example compounds are compared to the EC50 value of the combination. The cell lines are characterised by tumor type. Combination assays are performed as described in: “Pim 1 kinase inhibitor ETP-45299 suppresses cellular proliferation and synergizes with PI3K inhibition”. Blanco-Aparicio, Carmen; Collazo, Ana Maria Garcia; Oyarzabal, Julen; Leal, Juan F.; Albaran, Maria Isabel; Lima, Francisco Ramos; Pequeno, Belen; Ajenjo, Nuria; Becerra, Mercedes; Alfonso, Patricia; Reymundo, Maria Isabel; Palacios, Irene; Mateos, Genoveva; Quinones, Helena; Corrionero, Ana; Carnero, Amancio; Pevarello, Paolo; Lopez, Ana Rodriguez; Fominaya, Jesus; Pastor, Joaquin; Bischoff, James R. Cancer Letters (Shannon, Ireland) 2011, 300(2), 145-153

HCT116 = assay: Combination assay, HCT116; format: cell-based; conditions: Homo sapiens, HCT-116; HCT116, chemotherapeutic alone; read-out: Chemo GI50
Protocol: as §1, §2

SKMEL19 = assay: Combination assay, SKMEL19; format: cell-based; conditions: Homo sapiens, SK-MEL19; SKMEL19, chemotherapeutic alone; read-out: Chemo GI50
Protocol: as §1, §2

DU145 = assay: Combination assay, DU145; format: cell-based; conditions: Homo sapiens, DU-145; DU145, chemotherapeutic alone; read-out: Chemo GI50
Protocol: as §1
The EC50 values of representative combinations are also calculated. The individually measured EC50 values of the chemotherapeutic agent and the example compounds are compared to the EC50 value of the combination. The cell lines are characterised by tumor type. […] Blanco-Aparicio, Carmen; Collazo, Ana Maria Garcia; Oyarzabal, Julen; Leal, Juan F.; Albaran, Maria Isabel; Lima, Francisco Ramos; Pequeno, Belen; Ajenjo, Nuria; Becerra, Mercedes; Alfonso, Patricia; Reymundo, Maria Isabel; Palacios, Irene; Mateos, Genoveva; Quinones, Helena; Corrionero, Ana; Carnero, Amancio; Pevarello, Paolo; Lopez, Ana Rodriguez; Fominaya, Jesus; Pastor, Joaquin; Bischoff, James R. Cancer Letters (Shannon, Ireland) 2011, 300(2), 145-153

BXPC-3 = assay: Combination assay, BXPC-3; format: cell-based; conditions: Homo sapiens; BXPC-3, chemotherapeutic alone; read-out: Chemo GI50
Protocol: as §1, §2

MDAMB231 = assay: Combination assay, MDAMB231; format: cell-based; conditions: Homo sapiens, MDA-MB-231; MDAMB231, chemotherapeutic alone; read-out: Chemo GI50
Protocol: as §1, §2

A549 = assay: Combination assay, A549; format: cell-based; conditions: Homo sapiens; A549, chemotherapeutic alone; read-out: Chemo GI50
Protocol: as §1, §2

Haspin kinase = Haspin kinase (Homo sapiens (Human), UniProt Q8TF76); assay: Haspin kinase assay (ADP-Glo); format: biochemical; conditions: ATP 150 μM
Chain of Haspin kinase (Q8TF76 484-798): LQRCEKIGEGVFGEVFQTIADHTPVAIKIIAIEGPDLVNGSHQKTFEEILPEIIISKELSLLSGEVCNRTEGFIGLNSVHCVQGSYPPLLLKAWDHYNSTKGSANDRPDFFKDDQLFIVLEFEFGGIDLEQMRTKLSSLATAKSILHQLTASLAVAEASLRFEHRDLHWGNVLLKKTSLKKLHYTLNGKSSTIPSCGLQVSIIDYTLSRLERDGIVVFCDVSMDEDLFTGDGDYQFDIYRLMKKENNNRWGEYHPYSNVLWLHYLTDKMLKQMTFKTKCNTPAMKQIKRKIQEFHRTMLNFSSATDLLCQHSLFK
Procedure, shortened: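 Compounds in 1:3 serial dilutions (1% DMSO final) were incubated 60 min at 30 °C with 20 nM recombinant GST-Haspin kinase domain and 150 μM ATP, without substrate, in pH 7.4 HEPES/MgCl2 buffer. ADP formed was read by luciferase luminescence and normalized to uninhibited enzyme to give % inhibition.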

intracellular HASPIN = intracellular HASPIN (Homo sapiens (Human), UniProt Q8TF76); assay: Cellular HASPIN inhibition assay, western blot phospho H3T3 in synchronized SW620 cells; format: cell-based; conditions: semiquantitative, read-out: SW620 PH3(T3) in synchronized cells
Chain of intracellular HASPIN (Q8TF76 whole entry): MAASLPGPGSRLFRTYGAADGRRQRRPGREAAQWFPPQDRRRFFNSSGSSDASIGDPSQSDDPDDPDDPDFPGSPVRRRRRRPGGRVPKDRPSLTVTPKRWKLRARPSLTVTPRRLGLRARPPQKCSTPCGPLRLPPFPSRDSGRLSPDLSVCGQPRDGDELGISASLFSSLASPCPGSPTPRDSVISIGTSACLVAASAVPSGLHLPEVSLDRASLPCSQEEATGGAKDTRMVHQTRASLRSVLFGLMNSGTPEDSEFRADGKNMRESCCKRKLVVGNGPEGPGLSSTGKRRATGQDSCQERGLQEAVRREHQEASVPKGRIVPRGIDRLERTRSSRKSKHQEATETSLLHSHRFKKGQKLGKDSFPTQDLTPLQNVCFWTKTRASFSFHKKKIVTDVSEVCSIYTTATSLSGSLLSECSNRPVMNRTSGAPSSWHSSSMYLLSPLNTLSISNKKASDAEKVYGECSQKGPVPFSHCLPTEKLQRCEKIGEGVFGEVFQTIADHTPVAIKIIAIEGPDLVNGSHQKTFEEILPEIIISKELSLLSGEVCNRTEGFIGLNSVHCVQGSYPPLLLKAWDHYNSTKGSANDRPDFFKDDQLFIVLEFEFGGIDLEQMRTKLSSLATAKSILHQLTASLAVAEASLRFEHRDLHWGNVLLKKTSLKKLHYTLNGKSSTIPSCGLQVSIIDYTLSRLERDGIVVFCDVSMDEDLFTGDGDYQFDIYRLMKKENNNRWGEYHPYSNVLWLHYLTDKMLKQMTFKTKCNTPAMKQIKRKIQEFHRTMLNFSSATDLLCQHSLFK
Protocol: Compounds can be screened for their ability to inhibit intracellular HASPIN using a western blot assay to detect phosphorylation of the HASPIN substrate H3T3 in synchronized cells. SW620 cells are plated at 200000 cells per well in 6-well plates (Solmeglas 13118) in RPMI media (Sigma-Aldrich R6504) supplemented with 10% foetal bovine serum (Sigma-Aldrich F7524), Penicillin/Streptomycin solution diluted 1:100 (Gibco 15070-063), and fungizone (Gibco, 15290-018), and allowed to adhere overnight at 37° C. in 5% CO2. Cells are then treated 16 h hours with Nocadazole (Sigma-Aldrich M1404) at 250 ng/ml to arrest them in mitosis. Proteasoma inhibitor MG132 (Sigma-Aldrich C2211) is added to a final concentration of […] to keep cells arrested in mitosis. Compounds are then added to the cell media from a final concentration of 10 μM in 10-fold serial dilutions and the cells are incubated at 37° C. in 5% CO2. After 1 hour and 30 minutes of treatment with the compounds, the cells are washed in PBS, lysed adding 100 μl of protein lysis buffer (62.5 mM Tris pH 6.8 al 6.25%, 2% SDS y 10% glycerol) incubation 10 minutes at room temperature and heating at 95° C. 10 min. The protein content of the lysates is determined by DC protein assay (Biorad, Ref. 5000116). The proteins are resolved by SDS-PAGE and transferred to nitrocellulose membrane (VWR International eurolab, Ref. 732-4007). The membranes are incubated overnight at 4° C. with antibodies specific for total H3 (Millipore #07424), phosphothreonine-3 H3 (Cell Signaling Ref. 14269) they are washed and then incubated with IRDye800 conjugated anti-mouse (Pierce/Cultek, 35521) and Alexa Fluor 680 goat anti-rabbit IgG secondary antibodies (Invitrogen, A21076). The bands are visualized and quantified using an Odyssey infrared imaging system (Li-Cor Biosciences). The percentage of phosphorylated H3 vs total H3 in synchronized cells is taken as hundred percent of phosphorylation. The percentage of H3 phosphorylation is finally plotted against concentration for each compound and EC50s for intracellular HASPIN inhibition are calculated using ActivityBase from IDBS.

Chain of CDK8/Cyclin C (P49336 whole entry): as the sequence (P49336 whole entry) above
Chain of CDK8/Cyclin C (P24863 whole entry partner): as the sequence (P24863 whole entry partner) above

| SMILES | IC50 (CDK8/Cyclin C) [nM] | IC50 (CDK19/Cyclin C) [nM] | EC50 (intracellular CDK8 [1]) [nM] | GI50 (SW620 [5]) [nM] | GI50 (SKMEL19) [nM] | GI50 (BXPC-3) [nM] | effect in colony forming assay (SW620 cells) | also measured |
| --- | --- | --- | --- | --- | --- | --- | --- | --- |
| CCCNc1ccc2ncc(-c3ccc4[nH]ncc4c3)n2n1 [CHR-6494] |  |  |  |  |  |  |  | reduction of H3T3ph [4]: reduce H3T3ph |
| C[C@@H](Oc1cc(-c2cnn(C3CCNCC3)c2)cnc1N)c1c(Cl)ccc(F)c1Cl [Crizotinib, crizotinib, reference compound] |  |  |  | 1000 | 5000 | 5000 |  | GI50 (HCT116): 5000 nM; GI50 (DU145): 20000 nM |
| CN(NC(=O)CC(=O)NN(C)C(=S)c1ccccc1)C(=S)c1ccccc1 [Elesclomol, elesclomol, reference compound] |  |  |  | 250 | 250 | 62 |  | GI50 (MDAMB231): 250 nM; GI50 (A549): 250 nM |

Continued, in another order:

| IC50 (CDK8/Cyclin C) [nM] | IC50 (CDK19/Cyclin C) [nM] | EC50 (intracellular CDK8 [1]) [nM] | GI50 (SW620 [5]) [nM] | GI50 (SKMEL19) [nM] | GI50 (BXPC-3) [nM] | SMILES | effect in colony forming assay (SW620 cells) | also measured |
| --- | --- | --- | --- | --- | --- | --- | --- | --- |
| 8.5 | 7.14 | < 500 |  |  |  | NC(=O)c1cc2c([nH]1)-c1ccncc1O[C@H]2C1CCCCC1 (single isomer, unassigned) [Example 70] | dose-dependent effect | EC50 (intracellular CDK8 [2]): < 500 nM; GI50 (MV4:11): < 1000 nM; GI50 (MDA-MB-231): 10000 to 100000 nM; GI50 (SW620 [3]): 1000 to 10000 nM; GI50 (Molm13): 1000 to 10000 nM |
| 139 | 97.3 | < 500 |  |  |  | COc1ccccc1-c1c2c(n(CCF)c1C(N)=O)-c1ccncc1OC2(C)C [Example 73] | dose-dependent effect | IC50 (Haspin kinase): 1120 nM; EC50 (intracellular HASPIN): 500 to 10000 nM; EC50 (SW620 cells; Homo sapiens, SW-620, 264 h, read-out: mean EC50, colony forming assay): 5430 ± 297 nM |
